According to patent US20240150423A1, “GLP-1 ANALOGUE-MODIFIED DIMERS WITH DIFFERENT CONFIGURATIONS, PREPARATION METHOD THEREOF, AND APPLICATION THEREOF IN TREATMENT OF TYPE II DIABETES” (Nanjing Finepeptide Biopharmaceutical Co.,Ltd, priority 2019, published 2024):

Experiments:
[1] = test system: KM mice; experiment: Hypoglycemia test in fasted KM mice at multiples of the low dose; type: in vivo; settings: 8 and 68 times of low dose, KM mice fasted for 13 hour, within 3 hours after the administration
[2] = T2D model treatment: body weight and organ weights; type: in vivo, C57B16/J mice; settings: 2G3 study, 35 days
Description: C57B16/J mice were placed in an SPF-level environment with a standard diet. All experimental operations were performed in accordance with the guidelines of the ethics and uses of experimental animals. […] The NaCl-PB group served as blank control and the model control group served as the T2D model control. They were injected with NaCl-PB solution. The T2D model group was fed with 60 kcal % high-fat diet (D12492, Changzhou SYSE Bio-tech. Co., Ltd., China) until the end of the experiment. Meanwhile the blank control group maintained standard diet. […] These groups were subjected to a 35-day treatment study on the basis of the high-fat diet. • 1. […] The monomeric peptides were dissolved into a saline solution (pH 6.5) for injection. • 2. […] The models were measured blood glucose at the tail and weight weighted every morning at 9 am. […] In the T2D treatment study, all T2D model mice were injected subcutaneously at the back hip in 100 μl per mouse within 30 min. The blood glucose of the experimental mice was measured every five days and the whole measurement was completed within 40 min. […] No. 8-9695-03-201-1, Novo Nordisk company, Switzerland) until the end of the 35-day experiment. • 3.

[3] = high dose 3.378 nmol/100 μL once a day
[4] = low dose 0.375 nmol/100 μL once a day
[5] = medium dose and Liraglutide group 1.126 nmol/100 μL once a day

With `CCCCCCCCCCCCCCCC(=O)N[C@@H](CCC(=O)NCCCC[C@H](NC(=O)[C@H](C)NC(=O)[C@H](C)NC(=O)[C@H](CCC(N)=O)NC(=O)CNC(=O)[C@H](CCC(=O)O)NC(=O)[C@H](CC(C)C)NC(=O)[C@H](Cc1ccc(O)cc1)NC(=O)[C@H](CSSC[C@H](NC(=O)[C@H](CO)NC(=O)[C@@H](NC(=O)[C@H](CC(=O)O)NC(=O)[C@H](CO)NC(=O)[C@@H](NC(=O)[C@H](Cc1ccccc1)NC(=O)[C@@H](NC(=O)CNC(=O)[C@H](CCC(=O)O)NC(=O)[C@H](C)NC(=O)[C@@H](N)Cc1c[nH]cn1)[C@@H](C)O)[C@@H](C)O)C(C)C)C(=O)N[C@@H](Cc1ccc(O)cc1)C(=O)N[C@@H](CC(C)C)C(=O)N[C@@H](CCC(=O)O)C(=O)NCC(=O)N[C@@H](CCC(N)=O)C(=O)N[C@@H](C)C(=O)N[C@@H](C)C(=O)N[C@@H](CCCCNC(=O)CC[C@H](NC(=O)CCCCCCCCCCCCCCC)C(=O)O)C(=O)N[C@@H](CCC(=O)O)C(=O)N[C@@H](Cc1ccccc1)C(=O)N[C@H](C(=O)N[C@@H](C)C(=O)N[C@@H](Cc1c[nH]c2ccccc12)C(=O)N[C@@H](CC(C)C)C(=O)N[C@H](C(=O)N[C@@H](CCCNC(=N)N)C(=O)NCC(=O)N[C@@H](CCCNC(=N)N)C(=O)NCC(=O)O)C(C)C)[C@@H](C)CC)NC(=O)[C@H](CO)NC(=O)[C@@H](NC(=O)[C@H](CC(=O)O)NC(=O)[C@H](CO)NC(=O)[C@@H](NC(=O)[C@H](Cc1ccccc1)NC(=O)[C@@H](NC(=O)CNC(=O)[C@H](CCC(=O)O)NC(=O)[C@H](C)NC(=O)[C@@H](N)Cc1c[nH]cn1)[C@@H](C)O)[C@@H](C)O)C(C)C)C(=O)N[C@@H](CCC(=O)O)C(=O)N[C@@H](Cc1ccccc1)C(=O)N[C@H](C(=O)N[C@@H](C)C(=O)N[C@@H](Cc1c[nH]c2ccccc12)C(=O)N[C@@H](CC(C)C)C(=O)N[C@H](C(=O)N[C@@H](CCCNC(=N)N)C(=O)NCC(=O)N[C@@H](CCCNC(=N)N)C(=O)NCC(=O)O)C(C)C)[C@@H](C)CC)C(=O)O` [2G3 series 20] as the compound, how does the hypoglycemia [1] read?
The hypoglycemia was “did not induce any one of 6 KM mice fasted for 13 hour to produce hypoglycemia”.

What about the “Weight of organs, Heart” value [2, 3] of the same compound?
The value was 0.1235 ± 0.02 g.

What about the “Weight of organs, Left kidney” value [2, 3] of the same compound?
The value was 0.1661 ± 0.02 g.

What about the “Weight of organs, Left testis” value [2, 3] of the same compound?
The value was 0.1070 ± 0.01 g.

And the “Weight of organs, Liver” value [2, 3]?
The value was 1.023 ± 0.12b*c* g.

And the “Weight of organs, Lung” value [2, 3]?
The value was 0.1523 ± 0.02 g.

And the “Weight of organs, Pancreas” value [2, 3]?
Its value is 0.3202 ± 0.07 g.

And the “Weight of organs, Right kidney” value [2, 3]?
Its value is 0.1640 ± 0.02 g.

What about the “Weight of organs, Right testis” value [2, 3] of the same compound?
The value was 0.1060 ± 0.01c* g.

What about the “Weight of organs, Spleen” value [2, 3] of the same compound?
Its value is 0.0763 ± 0.01 g.

And the “Weight of organs, adipose tissue” value [2, 3]?
Its value is 1.0047 ± 0.30b* g.

And the “Weight of organs, Heart” value [2, 4]?
The value was 0.1199 ± 0.01 g.

And the “Weight of organs, Left kidney” value [2, 4]?
Its value is 0.1703 ± 0.02 g.

What about the “Weight of organs, Left testis” value [2, 4] of the same compound?
Its value is 0.1065 ± 0.01 g.

What about the “Weight of organs, Liver” value [2, 4] of the same compound?
Its value is 1.138 ± 0.18a*c** g.

What about the “Weight of organs, Lung” value [2, 4] of the same compound?
Its value is 0.1565 ± 0.02 g.

What about the “Weight of organs, Pancreas” value [2, 4] of the same compound?
The value was 0.3329 ± 0.05b* g.

What about the “Weight of organs, Right kidney” value [2, 4] of the same compound?
Its value is 0.1648 ± 0.02 g.

What about the “Weight of organs, Right testis” value [2, 4] of the same compound?
The value was 0.1085 ± 0.01c* g.

And the “Weight of organs, Spleen” value [2, 4]?
The value was 0.0794 ± 0.02 g.

What about the “Weight of organs, adipose tissue” value [2, 4] of the same compound?
The value was 1.2216 ± 0.41a*c* g.

What about the “Weight of organs, Heart” value [2, 5] of the same compound?
The value was 0.1207 ± 0.01 g.

And the “Weight of organs, Left kidney” value [2, 5]?
The value was 0.1750 ± 0.02c* g.

And the “Weight of organs, Left testis” value [2, 5]?
Its value is 0.1041 ± 0.01 g.

And the “Weight of organs, Liver” value [2, 5]?
Its value is 1.048 ± 0.06a*b*c *** g.

And the “Weight of organs, Lung” value [2, 5]?
Its value is 0.1429 ± 0.02 g.

And the “Weight of organs, Pancreas” value [2, 5]?
The value was 0.3115 ± 0.03 g.

What about the “Weight of organs, Right kidney” value [2, 5] of the same compound?
Its value is 0.1617 ± 0.01 g.

And the “Weight of organs, Right testis” value [2, 5]?
Its value is 0.1052 ± 0.01c* g.

What about the “Weight of organs, Spleen” value [2, 5] of the same compound?
The value was 0.0807 ± 0.01a* g.

What about the “Weight of organs, adipose tissue” value [2, 5] of the same compound?
The value was 1.0369 ± 0.44b* g.
